Source: PubChem BioAssay AID256 (DTP/NCI, 2004)
Several values for one entry are separate records, joined by “and”; a condition that tells them apart may be missing. Identical values can stand only once. Inconclusive results and toxic doses are left out. Rule for the calls: active = survival T/C of 150% or more; inactive = T/C below 125% in these data.

Test system: CD2F1 mice, L1210 leukemia ip, survival T/C
Experiment: NCI In Vivo Anticancer Drug Screen. Data for tumor model L1210 Leukemia (intraperitoneal) in CD2F1 (CDF1) mice
Conditions: higher = longer survival
Procedure, shortened: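 Transplantable tumor in mice; compound-treated vs vehicle-treated groups. Read-out = treated/control ratio of the measured endpoint.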

[1] = endpoint: mean survival time, dose: 100.0 mg/kg/injection, schedule: Q01DX001 (ip), vehicle: saline with Tween-80
[2] = endpoint: mean survival time, dose: 200.0 mg/kg/injection, schedule: Q01DX001 (ip), vehicle: saline with Tween-80
[3] = endpoint: mean survival time, dose: 400.0 mg/kg/injection, schedule: Q01DX001 (ip), vehicle: saline with Tween-80
[4] = endpoint: mean survival time, dose: 50.0 mg/kg/injection, schedule: Q01DX001 (ip), vehicle: saline with Tween-80
[5] = endpoint: mean survival time, dose: 100.0 mg/kg/injection, schedule: Q01DX009 (ip), vehicle: saline with Tween-80
[6] = endpoint: mean survival time, dose: 200.0 mg/kg/injection, schedule: Q01DX009 (ip), vehicle: saline with Tween-80
[7] = endpoint: mean survival time, dose: 400.0 mg/kg/injection, schedule: Q01DX009 (ip), vehicle: saline with Tween-80
[8] = endpoint: mean survival time, dose: 100.0 mg/kg/injection, schedule: Q04DX003 (ip), vehicle: saline with Tween-80
[9] = endpoint: mean survival time, dose: 200.0 mg/kg/injection, schedule: Q04DX003 (ip), vehicle: saline with Tween-80
[10] = endpoint: mean survival time, dose: 20.0 mg/kg/injection, schedule: Q01DX009 (ip), vehicle: saline with Tween-80
[11] = endpoint: mean survival time, dose: 400.0 mg/kg/injection, schedule: Q04DX003 (ip), vehicle: saline with Tween-80
[12] = endpoint: mean survival time, dose: 100.0 mg/kg/injection, schedule: Q04DX002 (ip), vehicle: saline with Tween-80
[13] = endpoint: mean survival time, dose: 200.0 mg/kg/injection, schedule: Q04DX002 (ip), vehicle: saline with Tween-80
[14] = endpoint: mean survival time, dose: 400.0 mg/kg/injection, schedule: Q04DX002 (ip), vehicle: saline with Tween-80

Measured: T/C

Nc1nc(N)c2c(Cl)c(CNc3ccc(C(=O)NC(CC(=O)O)C(=O)O)cc3)ccc2n1 (stereo unspecified)
inactive: endpoint: mean survival time, dose: 2.0 mg/kg/injection, schedule: Q01DX001 (ip), vehicle: saline 121 % of control | endpoint: mean survival time, dose: 2.0 mg/kg/injection, schedule: Q01DX009 (oral), vehicle: saline 94 % of control | endpoint: mean survival time, dose: 2.0 mg/kg/injection, schedule: Q03HX024 (ip), vehicle: saline 101 % of control | endpoint: mean survival time, dose: 2.0 mg/kg/injection, schedule: Q08DX002 (ip), vehicle: saline 104 % of control | endpoint: mean survival time, dose: 4.0 mg/kg/injection, schedule: Q01DX001 (oral), vehicle: saline 103 % of control | endpoint: mean survival time, dose: 4.0 mg/kg/injection, schedule: Q01DX009 (ip), vehicle: saline 120 % of control | endpoint: mean survival time, dose: 4.0 mg/kg/injection, schedule: Q01DX009 (sc), vehicle: saline 98 % of control | endpoint: mean survival time, dose: 8.0 mg/kg/injection, schedule: Q01DX009 (oral), vehicle: saline 118 % of control | endpoint: mean survival time, dose: 8.0 mg/kg/injection, schedule: Q03HX024 (ip), vehicle: saline 95 % of control | endpoint: mean survival time, dose: 16.0 mg/kg/injection, schedule: Q01DX001 (oral), vehicle: saline 120 % of control | endpoint: mean survival time, dose: 16.0 mg/kg/injection, schedule: Q01DX009 (ip), vehicle: saline 88 % of control | endpoint: mean survival time, dose: 16.0 mg/kg/injection, schedule: Q01DX009 (sc), vehicle: saline 87 % of control | endpoint: mean survival time, dose: 16.0 mg/kg/injection, schedule: Q03HX016 (ip), vehicle: saline 98 % of control | endpoint: mean survival time, dose: 32.0 mg/kg/injection, schedule: Q01DX009 (oral), vehicle: saline 93 % of control | endpoint: mean survival time, dose: 512.0 mg/kg/injection, schedule: Q01DX001 (sc), vehicle: saline 96 % of control

NP(=O)(OCCC(OCc1ccccc1)OCc1ccccc1)N(CCCl)CCCl (stereo unspecified)
inactive: endpoint: mean survival time, dose: 25.0 mg/kg/injection, schedule: Q01DX001 (ip), vehicle: DMSO 100 % of control | endpoint: mean survival time, dose: 50.0 mg/kg/injection, schedule: Q01DX001 (ip), vehicle: DMSO 100 % of control | endpoint: mean survival time, dose: 100.0 mg/kg/injection, schedule: Q01DX001 (ip), vehicle: DMSO 91 % of control | endpoint: mean survival time, dose: 200.0 mg/kg/injection, schedule: Q01DX001 (ip), vehicle: DMSO 97 % of control | endpoint: mean survival time, dose: 400.0 mg/kg/injection, schedule: Q01DX001 (ip), vehicle: DMSO 103 % of control

[Cl][Pt][Cl].c1ccc([PH+](c2ccccc2)c2ccccc2)cc1.c1ccc([PH+](c2ccccc2)c2ccccc2)cc1
inactive: [1] 95 % of control | [2] 92 % of control | [3] 92 % of control

CCC[As](=O)(O)CC[As](=O)(O)CCC
inactive: endpoint: mean survival time, dose: 25.0 mg/kg/injection, schedule: Q01DX001 (ip), vehicle: saline with Tween-80 95 % of control | [4] 95 % of control | [1] 103 % of control

C=CCN1CCCC1=O
inactive: [5] 100 % of control | [6] 102 % of control | [7] 102 % of control

CC1(Br)CS(=O)(=O)CC1(C)Br (stereo unspecified)
inactive: endpoint: mean survival time, dose: 75.0 mg/kg/injection, schedule: Q01DX001 (ip), vehicle: saline with Tween-80 104 % of control | endpoint: mean survival time, dose: 150.0 mg/kg/injection, schedule: Q01DX001 (ip), vehicle: saline with Tween-80 98 % of control | endpoint: mean survival time, dose: 300.0 mg/kg/injection, schedule: Q01DX001 (ip), vehicle: saline with Tween-80 101 % of control

S=c1[n-]c2ccccc2s1.S=c1[n-]c2ccccc2s1.[Cl][Pt+2][Cl]
inactive: endpoint: mean survival time, dose: 25.0 mg/kg/injection, schedule: Q04DX003 (ip), vehicle: saline with Tween-80 95 % of control | endpoint: mean survival time, dose: 50.0 mg/kg/injection, schedule: Q04DX003 (ip), vehicle: saline with Tween-80 88 % of control | [8] 93 % of control | [9] 90 % of control

COc1nc(NC2OCC(O)C(O)C2O)c(C(C)=O)c(=O)n1C (stereo unspecified)
inactive: endpoint: median survival time, dose: 12.5 mg/kg/injection, schedule: Q01DX005 (ip), vehicle: saline with Tween-80 91 % of control | endpoint: median survival time, dose: 25.0 mg/kg/injection, schedule: Q01DX005 (ip), vehicle: saline with Tween-80 98 % of control | endpoint: median survival time, dose: 50.0 mg/kg/injection, schedule: Q01DX005 (ip), vehicle: saline with Tween-80 97 % of control | endpoint: median survival time, dose: 100.0 mg/kg/injection, schedule: Q01DX005 (ip), vehicle: saline with Tween-80 96 % of control | endpoint: median survival time, dose: 200.0 mg/kg/injection, schedule: Q01DX005 (ip), vehicle: saline with Tween-80 96 % of control

CCC(CC(=O)O)c1ccccc1 (stereo unspecified)
inactive: endpoint: mean survival time, dose: 50.0 mg/kg/injection, schedule: Q04DX003 (ip), vehicle: saline 96 % of control | endpoint: mean survival time, dose: 100.0 mg/kg/injection, schedule: Q04DX003 (ip), vehicle: saline 100 % of control | endpoint: mean survival time, dose: 200.0 mg/kg/injection, schedule: Q04DX003 (ip), vehicle: saline 102 % of control

ClC1C(Cl)C(Cl)C(Cl)C(Cl)C1Cl (stereo unspecified)
inactive: endpoint: mean survival time, dose: 10.0 mg/kg/injection, schedule: Q01DX009 (ip), vehicle: saline with Tween-80 104 % of control | [10] 105 % of control | endpoint: mean survival time, dose: 40.0 mg/kg/injection, schedule: Q01DX009 (ip), vehicle: saline with Tween-80 100 % of control | endpoint: mean survival time, dose: 100.0 mg/kg/injection, schedule: Q01DX009 (ip), vehicle: other 102 % of control | endpoint: mean survival time, dose: 100.0 mg/kg/injection, schedule: Q04DX003 (ip), vehicle: Klucel (hydroxypropylcellulose) (HPC) 102 % of control | endpoint: mean survival time, dose: 200.0 mg/kg/injection, schedule: Q01DX009 (ip), vehicle: other 96 % of control | endpoint: mean survival time, dose: 200.0 mg/kg/injection, schedule: Q04DX003 (ip), vehicle: Klucel (hydroxypropylcellulose) (HPC) 107 % of control | endpoint: mean survival time, dose: 400.0 mg/kg/injection, schedule: Q04DX003 (ip), vehicle: Klucel (hydroxypropylcellulose) (HPC) 102 % of control

CCCCCCC(C)(O)CCCCCC
inactive: [1] 93 % of control | [2] 96 % of control | [3] 101 % of control

O=C(c1ccc(Cl)cc1)c1no[n+]([O-])c1C(=O)c1ccc(Cl)cc1
inactive: [5] 94 % of control | [8] 107 % of control | [6] 100 % of control | [9] 95 % of control | [7] 94 % of control | [11] 95 % of control

NNC(=O)C(N)Cc1cnc[nH]1 (stereo unspecified)
inactive: endpoint: mean survival time, dose: 50.0 mg/kg/injection, schedule: Q04DX002 (ip), vehicle: saline with Tween-80 100 % of control | [12] 100 % of control | [13] 122 % of control | [14] 118 % of control

O=C(Nc1ccc(Nc2ccccc2)cc1)Nc1cc([N+](=O)[O-])ccc1Cl
inactive: [4] 92 % of control | [1] 86 % of control and 90 % of control | [5] 91 % of control and 98 % of control | [12] 93 % of control and 100 % of control | [8] 87 % of control | [2] 90 % of control | [6] 100 % of control and 109 % of control | [13] 91 % of control and 92 % of control | [9] 95 % of control | [3] 91 % of control | [7] 103 % of control and 111 % of control | [14] 92 % of control and 98 % of control | [11] 98 % of control

Nn1nc2ccccc2n1
inactive: [8] 111 % of control | [9] 117 % of control | [11] 95 % of control

O=C(C1=CC=CC1=P(c1ccccc1)(c1ccccc1)c1ccccc1)C(Cl)(Cl)Cl
inactive: [5] 94 % of control | [6] 107 % of control | [7] 107 % of control

O=[N+]([O-])/C=C/c1ccccc1
inactive: [10] 106 % of control | endpoint: mean survival time, dose: 20.0 mg/kg/injection, schedule: Q04DX003 (ip), vehicle: saline with Tween-80 102 % of control | endpoint: mean survival time, dose: 40.0 mg/kg/injection, schedule: Q04DX003 (ip), vehicle: saline with Tween-80 96 % of control | endpoint: mean survival time, dose: 80.0 mg/kg/injection, schedule: Q04DX003 (ip), vehicle: saline with Tween-80 94 % of control

O=C1CCC(OC(=O)c2ccccc2)CCN1 (stereo unspecified)
inactive: [5] 87 % of control | [6] 98 % of control | [7] 90 % of control
